The source of these data is publication PMC9353713, “Tumor-targeting cell-penetrating peptide, p28, for glioblastoma imaging and therapy” (Frontiers in Oncology, 2022).

For one series, the system named is LN-229 xenograft. Kind of series: Subcutaneous xenograft tumor growth. To be noted: LN-229 s.c. xenograft, day 20; TMZ 5 mg/kg Day1-5, p28 10 mg/kg 3 times weekly, i.p.; N=5/group; P<0.001. The format is in vivo, athymic mice. The method, then:
(§1) All animal work was performed under a protocol approved by the University of Illinois at Chicago. Athymic mice at 4-5 weeks old were purchased from The Jackson Laboratory. For orthotopic xenografts, GBM cell lines (LN-229 and U-118) were injected into the cerebral cortex. Following anesthesia, cancer cell suspensions at 5x10^5 cells/3μl were stereotactically injected (2 mm lateral to the sagittal suture, 1 mm anterior to the coronal suture, 3 mm depth) using a Koft model 963 stereotactic apparatus with a 31-gauge Hamilton syringe. After injection, the injection site was covered with sterile bone wax. Tumor growth was monitored by MR imaging. For tumor growth study, GBM cell lines (LN-229 and U-118) at 1.0x10^6 cell/mouse were subcutaneously (s.c.) implanted into the right flank of athymic mice ([22]). When tumors reached 3 mm in diameter, animals were randomized into several groups; PBS (control), TMZ 5 mg/kg (25.7 μmol/kg) 5 injections on Day1-5, and p28 10 mg/kg (3.4 μmol/kg) 3 times weekly, i.p. Body weight was determined 3 times weekly. The tumor volume in each animal was assessed by calipers and calculated 3 times weekly.
(§2) Data processing and statistical analysis were performed using GraphPad Prism. ANOVA test was performed for tumor growth analysis, and P<0.05 was considered statistically significant.

The next series concerns U-118 xenograft. The series can be described thus: Subcutaneous xenograft tumor growth. The format is in vivo, athymic mice. Particulars: U-118 s.c. xenograft, day 20; TMZ 5 mg/kg, p28 10 mg/kg i.p.; N=7/group. Here is the method: as §1, §2
A further series concerns LN-229. The series can be described thus: Cytotoxicity, MTT assay. The class given is cell-based, human. To be noted: LN-229, 1 mM, 72 hr, N=3, P<0.001. The method, then:
(§3) Cytotoxicity was evaluated by the MTT assay as described previously ([21], [22]). Cells seeded in 96-well plates were exposed to TMZ at various concentrations for 72 hr (N=3 in each concentration). Curves were fitted using GraphPad PRISM (version 5.0) as a function of a nonlinear one-phase decay (maximum iterations: 1,000, Cl: 95%).
(In general: Tetrazolium dyes change colour on reduction, which living cells bring about.)

Another series has as its system U-118. The series can be described thus: Cytotoxicity, MTT assay. The format is cell-based, human. To be noted: U-118, 1 mM, 72 hr, N=3, P<0.001. Here is the method: as §3
Series [1] can be described thus: Body weight in xenograft study. The class given is in vivo, athymic mice. Particulars: U-118 xenograft mice, over four weeks of i.p. treatment. The method, then:
as §1

For the compound `Cn1nnc2c(C(N)=O)ncn2c1=O` [TMZ, temozolomide], the “reduction in tumor growth compared to the PBS control group” value in the series with LN-229 xenograft was 42.4%. Also, the “reduction of tumor growth” value in the series on U-118 xenograft was 24.5%. For the same compound, the “reduction (antiproliferative effect, MTT)” value with LN-229 is given as 53.2%; in the series with U-118, 36.6%. In series [1], this compound displayed a body weight of 29.0 ± 0.8 g.
